Assay results as given in PubChem BioAssay (NCI).
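All cell lines were grown in 96-well plates and treated with compound for 48 hours. TGI: concentration producing complete growth inhibition.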 Where a SMILES comes first, the peptide text is derived from it. [ ]: non-standard residue; d: D form. The star is where a group is joined. Phe(4-NO2) = N[CH](Cc1ccc([N+](=O)[O-])cc1)C(=O)O; Boc = CC(C)(C)OC(=O)*; OBn = c1ccc(CO*)cc1

Assays:
Experiment in all cases: inhibition of tumour cell growth, NCI panel, 48 h
IGROV1 ovarian = test system: IGROV1 ovarian
U251 CNS = test system: U251 CNS
SK-OV-3 ovarian = test system: SK-OV-3 ovarian
CCRF-CEM leukemia = test system: CCRF-CEM leukemia
RXF 393 renal = test system: RXF 393 renal
PC-3 prostate = test system: PC-3 prostate
NCI-H226 lung = test system: NCI-H226 lung
A498 renal = test system: A498 renal
HT29 colon = test system: HT29 colon
T-47D breast = test system: T-47D breast

Structure (SMILES) | TGI (IGROV1 ovarian) | TGI (U251 CNS) | TGI (SK-OV-3 ovarian) | TGI (CCRF-CEM leukemia) | TGI (RXF 393 renal) | TGI (PC-3 prostate) | TGI (NCI-H226 lung) | TGI (A498 renal) | TGI (HT29 colon) | TGI (T-47D breast)
Oc1ccc(Cl)cc1C1=N/C(=N\CN2CCN(C/N=C3/N=C(c4cc(Cl)ccc4O)CC(c4ccccc4)N3)CC2)NC(c2ccccc2)C1 (stereo not given) | > 100 µM | > 100 µM | > 100 µM | > 100 µM | 43.3 µM | > 100 µM | > 100 µM | > 100 µM | > 100 µM | –
CN1CC2=C(OC(N)=C(C#N)C2c2cccs2)/C(=C/c2cccs2)C1 (stereo not given) | > 65.8 µM | > 100 µM | > 100 µM | > 29 µM | 48.5 µM | > 60.5 µM | > 100 µM | > 100 µM | > 78.3 µM | 1.47 µM
COC(=O)CCC(NC(=O)OC(C)(C)C)C(=O)NC(Cc1ccc([N+](=O)[O-])cc1)C(=O)NCC(=O)OCc1ccccc1 (stereo not given) (Boc-Glu(OMe)-[Phe(4-NO2)]-Gly-OBn; configuration not given here) | > 100 µM | > 100 µM | > 100 µM | > 100 µM | > 72.8 µM | > 100 µM | > 100 µM | > 100 µM | > 100 µM | > 100 µM
CCN1CC(C)Cn2c(=O)[nH]c3cc(Br)cc1c32 (stereo not given) | > 100 µM | > 100 µM | > 100 µM | > 100 µM | 37.3 µM | > 100 µM | > 100 µM | 80.3 µM | > 100 µM | > 100 µM
N=C(N)SCCON1C(=O)c2ccccc2C1=O | > 100 µM | > 100 µM | > 100 µM | > 100 µM | > 100 µM | > 100 µM | > 100 µM | > 100 µM | > 100 µM | > 100 µM
CC(=O)O/C=C\OC1CCCC1(c1ccccc1)c1ccccc1 (stereo not given) | 6.08 µM | 11.6 µM | 27.6 µM | 5.71 µM | 5.06 µM | 9.15 µM | 24.8 µM | 32.9 µM | 8.71 µM | 6.19 µM
CC(=O)NCCCCNCCCNC(C)=O | > 100 µM | > 100 µM | > 100 µM | > 100 µM | > 100 µM | – | > 100 µM | > 100 µM | > 100 µM | > 100 µM
CSc1c(C(=O)Nc2ccccc2)c(N)nn1-c1ccccc1 | – | > 100 µM | > 100 µM | > 100 µM | > 100 µM | > 100 µM | > 100 µM | > 100 µM | > 100 µM | > 100 µM
CCOC(=O)/C(=C\NCC(O)c1ccccc1)c1nc2ccccc2[nH]1 (stereo not given) | 57.4 µM | – | > 100 µM | 33.3 µM | > 100 µM | – | – | 64.1 µM | 56.7 µM | –
Cc1ccc(C(=O)OC[C@H]2CC[C@@H](n3cc(N(C)C4CCCCC4)c(=O)[nH]c3=O)O2)cc1 | > 100 µM | 38.7 µM | > 100 µM | 93 µM | 37.7 µM | > 100 µM | 56.6 µM | 46.8 µM | 37.8 µM | –
CCC1C(=O)C[C@H]2[C@@H]3C(O)CC4=CC(=O)CC[C@]4(C)[C@H]3CC[C@]12C (stereo not given in full) | > 50 µM | > 50 µM | > 50 µM | > 50 µM | – | > 50 µM | – | > 50 µM | > 50 µM | > 50 µM
